US4226883A, “Carbamate derivatives and method for manufacture thereof” (priority 1974, dated 1980)
Read-outs that look alike come from different tables or passages of the source.

Legend:
[1] = tested on: citrus red mites (Panonychus citri McGregor) immunized from Dimethoate; assay: whole plant or invertebrate; settings: foliar, 24 h, read-out: Mortality (%), Concentration 250 ppm
[2] = tested on: Culex pipiens pallens immunized against organophosphoric preparations, last larval state; assay: Test Example 9 (W.H.O. method): mosquito larvae test; assay type: in vivo; settings: Culex pipiens, 24 h, read-out: Effect of compound used singly, LD50 (Table 16)
Description: (1) An ethyl alcohol solution of each test compound was diluted with water to varying concentrations in the range of from 0.01 to 1.0 ppm.
(2) A 200-ml portion of each solution of a different concentration was placed in a 300-ml beaker. Then 30 test insects were plunged into the solution and then removed.
(3) The insects removed from the solution were kept in a greenhouse at a constant temperature of 25±1° C. for 24 hours. At the end of 24 hours of standing, a count was taken of the number of insects that had died by that time.
The test described above was repeated twice or thrice.

[3] = tested on: green rice leafhoppers of the strain RN; assay: Test Example 3: dust spray test (20 mesh metal gauze cylinder); assay type: in vivo, Nephotettix cincticeps; settings: 24 hr
[4] = tested on: resistant green rice leafhoppers (R); settings: for Insecticidal Activity R/S (resistant ratio): ratio of the resistant strain to the susceptible strain (LD50), 1440 min
Outline: (§1)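 Test compounds were diluted in acetone and applied topically to the thorax of female green rice leafhoppers at 0.2 μl per head. Insects were then held in cups with […] at 26±1 °C, and mortality was counted after 24 h. LD50 for mixtures is expressed as total dosage.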

[5] = target: cholinesterase (ChE), susceptible strain; assay: Inhibition of cholinesterase (acetylthiocholine method), susceptible strain enzyme; assay type: biochemical, green rice leafhopper, Nephotettix cincticeps; settings: 50% inhibition concentration, 30° C. 30 min with inhibitor, read-out: Inhibition of Cholinesterase I50 (M) S
Description: The activity of ChE was performed by the acethyethiocholine method [Ellman (1961), Biochemical Pharmacology 7: 88-95].
[…]. After centrifuged (30,000 g, 10 min.), the supernatant was used as the source of ChE.
(§2) (2) Inhibition: 1.0 ml of enzyme solution was incubated with 0.1 ml of inhibitor which diluted with acetone at 30° C. for 30 min. ((2) solution).
(3) Determination of ChE activity: 1.0 ml of acetylthiochline (3.5/2×10^-2 M), 1.0 ml of DTNB (5,5'-dithiobis-2-nitrobenzoic acid, 2.5×10^-4 M) and 4.0 ml of phosphate buffer (1/15 M, pH 7.4) were added to the (2) solution and incubated at 30° C. for 10 min. After incubation, […] of eserine (2×10^-3 M) was added in order to stop the enzyme reaction and the optical density of the yellow solution was measured at 412 mμ on the spectrophotometer.

[6] = tested on: sensitive green rice leafhoppers (S); settings: susceptible strain, topical
Outline: as §1

[7] = tested on: cholinesterase (ChE), resistant strain; assay type: biochemical, green rice leafhopper, Nephotettix cincticeps; settings: for Inhibition of Cholinesterase R/S (resistant ratio): ratio of the resistant strain to the susceptible strain (I50), 30 min; for IC50: resistant strain, 50% inhibition concentration, 30° C. 30 min with inhibitor, read-out: Inhibition of Cholinesterase I50 (M) R
Description: After centrifuged (30,000 g, 10 min.), the supernatant was used as the source of ChE.
as §2
(3) Determination of ChE activity: 1.0 ml of acetylthiochline (3.5/2×10^-2 M), 1.0 ml of DTNB (5,5'-dithiobis-2-nitrobenzoic acid, 2.5×10^-4 M) and 4.0 ml of phosphate buffer (1/15 M, pH 7.4) were added to the (2) solution and incubated at 30° C. for 10 min.

Compound	mortality at 250 ppm [1]	LC50 [2]	mortality at 100 mg/cylinder ([3]; 2% dust, 100 mg, read-out: Mortality (%) after 24 hr., 100 mg Spray (Table 7))	mortality at 250 mg/cylinder ([3]; 2% dust, 250 mg, read-out: Mortality (%) after 24 hr., 250 mg Spray (Table 7))	mortality at 100 mg/cylinder ([3]; Table 8, dust 100 mg, read-out: Mortality (%) after 24 hr., Spray Volume 100 mg)	mortality at 250 mg/cylinder ([3]; Table 8, dust 250 mg, read-out: Mortality (%) after 24 hr., Spray Volume 250 mg)	Insecticidal Activity R/S (resistant ratio) [4]	IC50 [5]	Insecticidal Activity (after 24 hrs.) LD50 (μg/g) S [6]	Insecticidal Activity (after 24 hrs.) LD50 (μg/g) R ([4]; resistant strain, topical, 24 hrs)	Inhibition of Cholinesterase R/S (resistant ratio) [7]	IC50 [7]
CCCNC(=O)Oc1cccc(C)c1 [Compound 26, 3-methylphenyl-N-n-propylcarbamate]	85%	> 1 µg/mL	70%	100%	70%	100%	0.6					
CNC(=O)Oc1cccc(C(C)(C)C)c1 [Compound 32, 3-tert-butylphenyl-N-methylcarbamate, reference compound]							31.3	7.2e-07 M	1.6 µg/g	50.0 µg/g	16.6	1.2e-05 M
CCc1ccc(OC(=O)NC)cc1CC [Compound 50, reference compound]	70%							1.1e-06 M			46.4	5.1e-05 M
